According to patent US12409174B2, “Combination of zibotentan and dapagliflozin for the treatment of endothelin related diseases” (priority 2020, dated 2025):
Each block holds one molecule with its values, some of them ahead of it.

Legend:
[1] = system: male Wistar rats fed a 4% salt diet; assay: Effect of zibotentan, dapagliflozin and the combination on Hct, Experiment 2; type: in vivo; set-up: key to Hct levels, difference in means (estimate): difference in log-transformed Hct means, treated minus vehicle; Hct levels, Difference / Difference in Hct means: unit not given here; conditions: Exp 2; for Difference in Hct means: all time points; for Hct levels, difference in means (estimate): log scale
Description: (§1) In the second experiment (Experiment 2), the effect of zibotentan and dapagliflozin (alone or in combination) on Hct concentration and Hb was determined. Seventy-two animals were randomized on BW and Hct concentration, 2 to 3 days prior to administration of study drugs into the following groups; 1) Vehicle, 2) Zibotentan (30 mg/kg), 3) Zibotentan (100 mg/kg), 4) Dapagliflozin (3 mg/kg), 5) Zibotentan (30 mg/kg)+Dapagliflozin (3 mg/kg) and 6) Zibotentan (100 mg/kg)+Dapagliflozin (3 mg/kg). For practical reasons, the study was conducted in two consecutive slots with 36 animals (6/group) in each slot. Compounds were administered p.o. QD for seven days. Blood samples for bioanalysis were collected at 4 and 24 hr after the first dose and 24 hr after the final dose for Hct concentration and Hb analysis on day three and seven as described for exp.1. Twenty-four hour urine was collected between the third and fourth dose. 24 hr food and water intake was measured between day 2-3 and between day 6-7. With two animals per cage, food intake and water intake per animal in a cage was assessed by dividing the food intake and water intake of a cage by two.
(§2) For Hct and Hb analysis, 100 μl of blood from rat's tail vein was collected and measured using CG8 cartridges analysed with an iSTAT instrument (Abbott Point of Care Inc, Abbot Park, IL, USA).
(§3) The data for each feature measured was checked for a normal distribution and where appropriate a log transformation was applied to data with a non-normal distribution using R. Since the data were grouped by one factor Zibotentin doses or combined therapy, a one-way ANOVA was used to analyse traits measured at a single time point (GraphPad version 8 or R statistics package emmeans) and a linear mixed effects model (nlme package) in R was used to analyse multiple measures data for body weight. The differences between groups were tested using either a Dunnett test (emmeans package in R or GraphPad v8) when comparing treated groups to the vehicle group or a Tukey comparison (emmeans package in R or Graphpad v8.) for specific pairwise comparisons of treated groups. All model assumptions were checked using the model diagnostic plots in R statistics. Results are expressed as the Mean±standard error of the Mean (SEM) for pharmacodynamic parameters and Mean±standard deviation (SD) for compound concentration in blood and urine. Significance was set at p<0.05.
The Hct data were analysed using a linear mixed effects model to estimate the marginal means and standard deviations within the vehicle and treated groups estimated at day 3, day 7 and overall for the entire study for post hoc comparisons. Treatment groups were compared to the vehicle to determine whether there were effects on Hct compared to the vehicle treated control group (Dunnett test), and the zibotentan treated groups were compared to zibotentan plus dapagliflozin groups (using a Tukey test) to determine if the combined therapy mitigated the effect of zibotentan on Hct.

[2] = Effect of zibotentan, dapagliflozin and the combination on body weight, Experiment 2; conditions: Exp 2; for Prevention of BW gain compared to vehicle: administration period 7 days, FIG. 7
Description: as §1, §3
To assess the effect of the combined therapy on weight loss, body weight was measured every day and was compared using a linear mixed effects model.

[3] = system: male Wistar rats fed a 4% salt diet; assay: Effect of zibotentan and dapagliflozin on Hb, Experiment 2; type: in vivo; conditions: Exp 2; for Basal Hb: baseline
Description: as §1, §2, §3

[4] = system: male Wistar rats fed a 4% salt diet; assay: Effect on plasma Na, K, glucose, urea and creatinine concentration, Experiment 2; conditions: Exp 2
Description: as §1
Plasma and Urine Albumin, Creatinine, Glucose, Urea, Potassium and Sodium levels were analyzed using an ABX Pentra 400 instrument (Horiba Medical, Irvine, California, USA) according to the manufacturers protocol.
as §3

[5] = system: male Wistar rats fed a 4% salt diet; assay: 24 hr water and food intake, Experiment 2; type: in vivo; conditions: Exp 2; FIG. 8B and FIG. 8C
Description: as §1

- Plasma Na, K, glucose, urea concentrations compared to vehicle [4]: unaltered
- Plasma Creatinine ([4]; Dapa 3 mg/kg p.o. QD 7 days): 14.62 µM
- Plasma Glucose ([4]; Dapa 3 mg/kg p.o. QD 7 days): 8.98 mmol/L
- Plasma K ([4]; Dapa 3 mg/kg p.o. QD 7 days): 3.68 mmol/L
- Plasma Na ([4]; Dapa 3 mg/kg p.o. QD 7 days): 137.6 mmol/L
- Plasma Urea ([4]; Dapa 3 mg/kg p.o. QD 7 days): 4.34 mmol/L
SMILES: CCOc1ccc(Cc2cc([C@@H]3O[C@H](CO)[C@@H](O)[C@H](O)[C@H]3O)ccc2Cl)cc1 [Dapa, (1S)-1,5-anhydro-1-{4-chloro-3-[(4-ethoxyphenyl)methyl]phenyl}-D-glucitol]
- Difference in Hct means ([1]; Dapa 3 mg/kg vs Vehicle): 0.01
- Hct levels, difference in means (estimate) ([1]; day 3, Dapa 3.0 mg/kg vs Vehicle): 0.03
- Hct levels, Difference ([1]; day 7, Dapa 3.0 mg/kg vs Vehicle): 0.01
- Changes in body weight over the entire study, Difference ([2]; Dapa 3 mg/kg vs Vehicle): −0.03
- Prevention of BW gain compared to vehicle [2]: prevented this BW gain
- Day 3 Hb ([3]; Dapa 3 mg/kg p.o. QD): 164.4 g/L
- Day 7 Hb ([3]; Dapa 3 mg/kg p.o. QD): 159.1 g/L
- Basal Hb ([3]; group Dapa 3 mg/kg): 157.9 g/L
- Water and food intake compared to vehicle [5]: increased

SMILES: COc1nc(C)cnc1NS(=O)(=O)c1cccnc1-c1ccc(-c2nnco2)cc1 [Zibo, N-(3-methoxy-5-methylpyrazin-2-yl)-2-[4-(1,3,4-oxadiazol-2-yl)phenyl]pyridine-3-sulfonamide]
- Difference in Hct means ([1]; Zibo 30 mg/kg vs Vehicle): −0.05
- Difference in Hct means ([1]; Zibo 100 mg/kg vs Vehicle): −0.06
- Hct levels, difference in means (estimate) ([1]; day 3, Zibo 30 mg/kg vs Vehicle): −0.10
- Hct levels, difference in means (estimate) ([1]; day 3, Zibo 100 mg/kg vs Vehicle): −0.08
- Hct compared to vehicle ([1]; day 3, zibotentan 30 and 100 mg/kg with or without dapagliflozin 3 mg/kg): decreased
- Hct levels, Difference ([1]; day 7, Zibo 30 mg/kg vs Vehicle): −0.06
- Hct levels, Difference ([1]; day 7, Zibo 100 mg/kg vs Vehicle): −0.08
- Hct compared to vehicle ([1]; day 7, zibotentan 30 and 100 mg/kg alone): decreased
- Effect on Hct concentration ([1]; zibotentan 100 mg/kg alone, 7 days, one way ANOVA, Tukey): −4.00±0.87
- Hct concentration ([1]; zibotentan 30 or 100 mg/kg, 7 days administration): significantly decreased
- Changes in body weight over the entire study, Difference ([2]; Zibo 30 mg/kg vs Vehicle): 0.01
- Changes in body weight over the entire study, Difference ([2]; Zibo 100 mg/kg vs Vehicle): 0.01
- Prevention of BW gain compared to vehicle [2]: did not
- Day 3 Hb ([3]; Zibo 30 mg/kg p.o. QD): 144.4 g/L
- Day 7 Hb ([3]; Zibo 30 mg/kg p.o. QD): 148.6 g/L
- Day 3 Hb ([3]; Zibo 100 mg/kg p.o. QD): 147.5 g/L
- Day 7 Hb ([3]; Zibo 100 mg/kg p.o. QD): 144.8 g/L
- Basal Hb ([3]; group Zibo 30 mg/kg): 160.2 g/L
- Basal Hb ([3]; group Zibo 100 mg/kg): 158.5 g/L
- Plasma Na, K, glucose, urea concentrations compared to vehicle [4]: unaltered
- Plasma Creatinine ([4]; Zibo 30 mg/kg p.o. QD 7 days): 17.58 µM
- Plasma Glucose ([4]; Zibo 30 mg/kg p.o. QD 7 days): 8.96 mmol/L
- Plasma K ([4]; Zibo 30 mg/kg p.o. QD 7 days): 4.17 mmol/L
- Plasma Na ([4]; Zibo 30 mg/kg p.o. QD 7 days): 139.1 mmol/L
- Plasma Urea ([4]; Zibo 30 mg/kg p.o. QD 7 days): 4.47 mmol/L
- Plasma creatinine compared to vehicle ([4]; Zibo 100 mg/kg monotreatment or in combination with Dapa 3 mg/kg, p<0.05): significantly increase
- Plasma Creatinine ([4]; Zibo 100 mg/kg p.o. QD 7 days): 18.08 µM
- Plasma Glucose ([4]; Zibo 100 mg/kg p.o. QD 7 days): 8.73 mmol/L
- Plasma K ([4]; Zibo 100 mg/kg p.o. QD 7 days): 4.13 mmol/L
- Plasma Na ([4]; Zibo 100 mg/kg p.o. QD 7 days): 138.4 mmol/L
- Plasma Urea ([4]; Zibo 100 mg/kg p.o. QD 7 days): 4.25 mmol/L
- Water and food intake compared to vehicle [5]: unchanged
